Data published in PMC7402526, “An in vitro quantitative systems pharmacology approach for deconvolving mechanisms of drug-induced, multilineage cytopenias” (PLoS Computational Biology, 2020).
Where two headings read alike, the source gives them in different places.

Experiments:
Format in all cases: cell-based, human
[1] = tested on: hematopoietic stem cells (HSCs); experiment: Multi-lineage toxicity assay (MLTA), HSCs: concentration-response and QSP model fit; parameters: EmaxAP,HSC / EmaxT,HSC / Emax_drug_HSC: unitless, 0–2; ≤1 anti-proliferative, >1 adds cell killing; conditions: for EC50 / EmaxT,HSC: QSP model parameter, sheet EC50_parameters, HSCs
Protocol: (§1) A custom optimized cytokine cocktail was developed using commercially available cytokines (Peprotech, New Jersey) to facilitate simultaneous multi-lineage differentiation and self-renewal of freeze-thawed primary human bone marrow-derived CD34+ cells in SFEM II media (cells and media from StemCell Technologies, Vancouver). Cultures were carried out in ultra-low attachment 96-well plates (Corning, New York) with test article added on day 0 and cultured at 37°C, 85% relative humidity, and 5% CO2 for six days before interrogating drug impact via 17-parameter flow cytometry.
(§2) The flow cytometry panel used to define hematopoietic subsets was composed of CD34-PECy7, CD90-PECY5, CD38-AF488, CD371-PE, CD45Ra-BV421, CD14-BV605, CD42b-AF647, CD10-PEDazzle594, CD235a-PerCPCy5.5 (BioLegend, California), CD15-BUV395, CD41a-APCH7, CD71-BV786 (BD Biosciences, California), and DAPI for dead cell exclusion (ThermoFisher, California). In short, Day 6 cells were harvested, FcR-blocked (FcR binding inhibitor, ThermoFisher), surface-stained, then analyzed in a buffer containing TruCount Control Beads using a BD LSR Fortessa SORP fitted with a high-throughput sampler (BD Biosciences, California). Data was analyzed in Diva 6.0.2 and exported to CSV where after all cell data was transformed to cell per mL then normalized on a per-donor basis to untreated control wells to determine drug impact.
(§3) Donor material was collected and cultured as described above. The number of replicate donor samples per drug ranged from 2–7 and varied per drug (S1 Table). Drug treatment was added at time 0 and cells were maintained in culture for 6 days. Concentrations tested for each drug compound are contained in S1 Table. Concentrations were selected to span a range that is clinically useful. Following treatment, cell populations were measured using flow cytometry. We extracted cell counts from flow cytometry data, normalized to bead counts, and corrected for well volume.
(§4) Each well was normalized to the average of six vehicle control wells. For drugs that were tested across multiple runs of the assay, vehicle-normalized donor data were pooled, and we used the average of these pooled data for further modeling. Normalized data used as model inputs are included in S1 Table.
(§5) We implemented drug effects using an Emax model for the drug’s effect on each cell type. The 13 maximum effect parameters (EmaxT,C) are unitless and can vary between 0 and 2 and where a subscript, C, represents one of the previously described 13 cell types. We adapted a traditional Emax model using the equations below. We interpreted EmaxT values less than or equal to one as anti-proliferative, and EmaxT values greater than one as indicating a cell-killing mechanism in addition to anti-proliferation. The relationships for these effects are included in the model using the following equations. Eq 2 describes the drug anti-proliferative effect in the net proliferation rate for a given cell type. Eq 3 describes the cell-killing EmaxCK effect.
(§6) Towards the estimation of mechanistic parameters, we considered different formulations: (a) weighting the objective value to prioritize fitting dead cells and (b) using regularization methodology to encourage a parsimonious solution. We assessed the contributions of these formulations using mean-squared error and goodness of fit plots for drugs with known mechanisms. […] Further, we used L1 regularization to penalize parameters […] to help identify a parsimonious set of parameters to explain drug effects.

[2] = tested on: multi-potent progenitors (MPPs); experiment: MLTA, MPPs: concentration-response and QSP model fit; conditions: for EC50 / EmaxT,MPP: QSP model parameter, sheet EC50_parameters, MPPs
Protocol: as §1, §2, §3, §4, §5, §6

[3] = tested on: granulocyte-macrophage progenitor (GMPs); experiment: MLTA, GMPs: concentration-response and QSP model fit; conditions: for EC50 / EmaxT,GMP: QSP model parameter, sheet EC50_parameters, GMPs; for Emax_drug_GMP: parameter from QSP model fitting
Protocol: as §1, §2, §3, §4, §5, §6

[4] = tested on: granulocyte progenitor (Gran-lin prog); experiment: MLTA, GranP: concentration-response and QSP model fit; conditions: for EmaxT,GranP / EC50: QSP model parameter, sheet EC50_parameters, GranP; for EC50: read-out: EC50GranP
Protocol: as §1, §2, §3, §4, §5, §6

[5] = tested on: granulocytes (Gran-lin); experiment: MLTA, Gran: concentration-response and QSP model fit; conditions: for EC50 / EmaxT,Gran: QSP model parameter, sheet EC50_parameters, Gran
Protocol: as §1, §2, §3, §4, §5, §6

[6] = tested on: monocyte progenitors (monocyte prog); experiment: MLTA, MonoP: concentration-response and QSP model fit; conditions: for EmaxT,MonoP / EC50: QSP model parameter, sheet EC50_parameters, MonoP; for EC50: read-out: EC50MonoP
Protocol: as §1, §2, §3, §4, §5, §6

[7] = tested on: monocytes (monocyte-lin); experiment: MLTA, Mono: concentration-response and QSP model fit; conditions: for EC50 / EmaxT,Mono: QSP model parameter, sheet EC50_parameters, Mono
Protocol: as §1, §2, §3, §4, §5, §6

[8] = tested on: neutrophils (neutrophil-lin); experiment: MLTA, Neut: concentration-response and QSP model fit; conditions: for EC50 / EmaxT,Neut: QSP model parameter, sheet EC50_parameters, Neut
Protocol: as §1, §2, §3, §4, §5, §6

[9] = tested on: early erythroid cells (Eryth I); experiment: MLTA, ErythI: concentration-response and QSP model fit; conditions: for EmaxT,ErythroidI / EC50: QSP model parameter, sheet EC50_parameters, Erythroid I; for EC50: read-out: EC50ErythroidI
Protocol: as §1, §2, §3, §4, §5, §6

[10] = tested on: late erythroid cells (Eryth II); experiment: MLTA, ErythII: concentration-response and QSP model fit; conditions: for EmaxT,ErythroidII / EC50: QSP model parameter, sheet EC50_parameters, Erythroid II; for EC50: read-out: EC50ErythroidII
Protocol: as §1, §2, §3, §4, §5, §6

[11] = tested on: MK cells (MK-lin); experiment: MLTA, MK: concentration-response and QSP model fit; conditions: for EC50 / EmaxT,MK: QSP model parameter, sheet EC50_parameters, MK
Protocol: as §1, §2, §3, §4, §5, §6

[12] = tested on: lymphocyte progenitors (LymP); experiment: MLTA, LymP: concentration-response and QSP model fit; conditions: for EC50 / EmaxT,LymP: QSP model parameter, sheet EC50_parameters, LymP
Protocol: as §1, §2, §3, §4, §5, §6

[13] = tested on: B cells (B-lin); experiment: MLTA, B-lin: concentration-response and QSP model fit; conditions: for EC50 / EmaxT,B: QSP model parameter, sheet EC50_parameters, B
Protocol: as §1, §2, §3, §4, §5, §6

[14] = parameter from QSP model fitting

With `O=c1[nH]cc(F)c(=O)[nH]1` [5-FU] the EC50 [1] was 1910 nM, the “EmaxT,HSC” value [1] was 0.7982 and the Emax_drug_HSC [1, 14] was 0.7982. For the same compound, the EC50 [2] was 939 nM, the “EmaxT,MPP” value [2] was 0.000528 and the Emax_drug_MPP [2, 14] was 0.000528. For the same compound, the EC50 [3] was 753 nM, the “EmaxT,GMP” value [3] was 1.5687 and the Emax_drug_GMP [3] was 1.5687. For the same compound, the “EmaxT,GranP” value [4] was 0.0162, the EC50 [4] was 302 nM and the Emax_drug_GranP [4, 14] was 0.0162. The EC50 [5] was 0.117 nM, the “EmaxT,Gran” value [5] was 0.1807 and the Emax_drug_Gran [5, 14] was 0.1807. The “EmaxT,MonoP” value [6] was 0.0016, the EC50 [6] was 178 nM and the Emax_drug_MonoP [6, 14] was 0.0016. For the same compound, the EC50 [7] was 299 nM, the “EmaxT,Mono” value [7] was 0.3048 and the Emax_drug_Mono [7, 14] was 0.3048. The EC50 [8] was 1030 nM, the “EmaxT,Neut” value [8] was 0.2668 and the Emax_drug_Neut [8, 14] was 0.2668. For the same compound, the “EmaxT,ErythroidI” value [9] was 2.3324, the EC50 [9] was 921 nM and the Emax_drug_ErythroidI [9, 14] was 2.3324. For the same compound, the “EmaxT,ErythroidII” value [10] was 0.0352, the EC50 [10] was 1780 nM and the Emax_drug_ErythroidII [10, 14] was 0.0352. The EC50 [11] was 1110 nM, the “EmaxT,MK” value [11] was 0.3220 and the Emax_drug_MK [11, 14] was 0.3220. The EC50 [12] was 37 nM, the “EmaxT,LymP” value [12] was 0.0016 and the Emax_drug_LymP [12, 14] was 0.0016. The EC50 [13] was 1090 nM, the “EmaxT,B” value [13] was 0.8249 and the Emax_drug_B [13, 14] was 0.8249.
`Cc1c(-c2ccc(N3CCc4cccc(C(=O)Nc5nc6ccccc6s5)c4C3)nc2C(=O)O)cnn1CC12CC3CC(CC(C3)C1)C2` [A_1331852] was tested, and the EC50 [1] was 1960 nM, the “EmaxT,HSC” value [1] was 0.0828 and the Emax_drug_HSC [1, 14] was 0.0828. The EC50 [2] was 1000 nM, the “EmaxT,MPP” value [2] was 2.15e-6 and the Emax_drug_MPP [2, 14] was 2.15e-6. The EC50 [3] was 911 nM, the “EmaxT,GMP” value [3] was 1.14e-6 and the Emax_drug_GMP [3] was 1.14e-6. For the same compound, the “EmaxT,GranP” value [4] was 1.71e-6, the EC50 [4] was 949 nM and the Emax_drug_GranP [4, 14] was 1.71e-6. For the same compound, the EC50 [5] was 0.687 nM, the “EmaxT,Gran” value [5] was 2.2504 and the Emax_drug_Gran [5, 14] was 2.2504. The “EmaxT,MonoP” value [6] was 1.47e-5, the EC50 [6] was 182 nM and the Emax_drug_MonoP [6, 14] was 1.47e-5. For the same compound, the EC50 [7] was 15.5 nM, the “EmaxT,Mono” value [7] was 0.0610 and the Emax_drug_Mono [7, 14] was 0.0610. The EC50 [8] was 400 nM, the “EmaxT,Neut” value [8] was 1.51e-7 and the Emax_drug_Neut [8, 14] was 1.51e-7. The “EmaxT,ErythroidI” value [9] was 2.5750, the EC50 [9] was 32.3 nM and the Emax_drug_ErythroidI [9, 14] was 2.5750. The “EmaxT,ErythroidII” value [10] was 1.51e-6, the EC50 [10] was 1160 nM and the Emax_drug_ErythroidII [10, 14] was 1.51e-6. For the same compound, the EC50 [11] was 24.1 nM, the “EmaxT,MK” value [11] was 0.1880 and the Emax_drug_MK [11, 14] was 0.1880. The EC50 [12] was 21.2 nM, the “EmaxT,LymP” value [12] was 1.6e-5 and the Emax_drug_LymP [12, 14] was 1.6e-5. The EC50 [13] was 13.1 nM, the “EmaxT,B” value [13] was 0.1187 and the Emax_drug_B [13, 14] was 0.1187.
With `CC(C)C[C@H](NC(=O)[C@H](Cc1ccccc1)NC(=O)c1cnccn1)B(O)O` [Bortezomib] the Emax ([1]; Homo sapiens, Hematopoietic stem cell, 144 h, parameter from QSP model fitting, read-out: Emax_drug_HSC) was 134%, the EC50 ([1]; Homo sapiens, Hematopoietic stem cell) was 105 nM and the Emax ([2]; Homo sapiens, 144 h, parameter from QSP model fitting, read-out: Emax_drug_MPP) was 0.3%. It also gave an EC50 ([2]; Homo sapiens) of 33.1 nM, an EC50 ([3]; Homo sapiens) of 40.6 nM and an Emax ([4]; Homo sapiens, 144 h, parameter from QSP model fitting, read-out: Emax_drug_GranP) of 0.06%. It also gave an EC50 ([4]; Homo sapiens) of 132 nM, an Emax ([5]; Homo sapiens, 144 h, parameter from QSP model fitting, read-out: Emax_drug_Gran) of 184% and an EC50 ([5]; Homo sapiens) of 68.6 nM. It also gave an Emax ([6]; Homo sapiens, Monocyte, 144 h, parameter from QSP model fitting, read-out: Emax_drug_MonoP) of 0.17%, an EC50 ([6]; Homo sapiens, Monocyte) of 70.9 nM and an Emax ([7]; Homo sapiens, Monocyte, 144 h, parameter from QSP model fitting, read-out: Emax_drug_Mono) of 39%. The EC50 ([7]; Homo sapiens, Monocyte) was 83.6 nM, the Emax ([8]; Homo sapiens, Neutrophil, 144 h, parameter from QSP model fitting, read-out: Emax_drug_Neut) was 23.9% and the EC50 ([8]; Homo sapiens, Neutrophil) was 108 nM. The Emax ([9]; Homo sapiens, 144 h, parameter from QSP model fitting, read-out: Emax_drug_ErythroidI) was 0.16%, the EC50 ([9]; Homo sapiens) was 60.8 nM and the Emax ([10]; Homo sapiens, 144 h, parameter from QSP model fitting, read-out: Emax_drug_ErythroidII) was 19.1%. For the same compound, the EC50 ([10]; Homo sapiens) was 56.5 nM, the Emax ([11]; Homo sapiens, 144 h, parameter from QSP model fitting, read-out: Emax_drug_MK) was 35.3% and the EC50 ([11]; Homo sapiens) was 38.3 nM. For the same compound, the Emax ([12]; Homo sapiens, Lymphocyte, 144 h, parameter from QSP model fitting, read-out: Emax_drug_LymP) was 0.16%, the EC50 ([12]; Homo sapiens, Lymphocyte) was 112 nM and the Emax ([13]; Homo sapiens, B-cell, 144 h, parameter from QSP model fitting, read-out: Emax_drug_B) was 89.8%. The EC50 ([13]; Homo sapiens, B-cell) was 36.2 nM.
